Measured values published in patent publication US10894048B2, “Antitumor drug for intermittent administration of FGFR inhibitor” (priority 2013, dated 2021).

Columns and labels:
[1] = tested on: Human-derived gastric cancer OCUM-2MD3 cells; details: OCUM-2MD3, 72 h
Protocol: Human-derived gastric cancer OCUM-2MD3 cells, which overexpressed FGFR2, were subcultured daily in a Dulbecco's modified Eagle's medium (DMEM) containing 10% fetal bovine serum (FBS) at a cell density of not more than 80%. In order to initiate a test of the cell growth-inhibitory effect of the compounds, the OCUM-2MD3 cells were suspended in the above DMEM medium and seeded in a 96-well flat-bottom plate so that each well contained 3,000 cells. Then, the cells were cultured in an incubator containing 5% carbon dioxide gas at 37° C. for one day. […] The DMSO solution of the test compound was diluted with the medium used for cultivation, and the diluted solution was added to each well of the cell culture plate so that the final concentration of DMSO became 0.5%. […] The number of cells was measured at the time of the addition of the test compound and 72 hours later after culture by using a Cell Counting Kit-8 (produced by Dojindo Laboratories) according to a protocol recommended by Dojindo Laboratories. […] After completion of the reaction, the absorbance at a wavelength of 450 nm was measured by a microplate reader.
Growth inhibition rate (%)=(C−T)/(C−C0)×100 • T: absorbance of well to which test compound was added • C: absorbance of well to which test compound was not added • C0: absorbance of well measured before addition of compound

[2] = molecular target: purified recombinant human FGFR2 protein (Homo sapiens (Human), UniProt P21802); assay: Inhibitory effect on FGFR2 kinase activity; format: biochemical; details: ATP 75 μM
Chain of purified recombinant human FGFR2 protein (P21802 22-821): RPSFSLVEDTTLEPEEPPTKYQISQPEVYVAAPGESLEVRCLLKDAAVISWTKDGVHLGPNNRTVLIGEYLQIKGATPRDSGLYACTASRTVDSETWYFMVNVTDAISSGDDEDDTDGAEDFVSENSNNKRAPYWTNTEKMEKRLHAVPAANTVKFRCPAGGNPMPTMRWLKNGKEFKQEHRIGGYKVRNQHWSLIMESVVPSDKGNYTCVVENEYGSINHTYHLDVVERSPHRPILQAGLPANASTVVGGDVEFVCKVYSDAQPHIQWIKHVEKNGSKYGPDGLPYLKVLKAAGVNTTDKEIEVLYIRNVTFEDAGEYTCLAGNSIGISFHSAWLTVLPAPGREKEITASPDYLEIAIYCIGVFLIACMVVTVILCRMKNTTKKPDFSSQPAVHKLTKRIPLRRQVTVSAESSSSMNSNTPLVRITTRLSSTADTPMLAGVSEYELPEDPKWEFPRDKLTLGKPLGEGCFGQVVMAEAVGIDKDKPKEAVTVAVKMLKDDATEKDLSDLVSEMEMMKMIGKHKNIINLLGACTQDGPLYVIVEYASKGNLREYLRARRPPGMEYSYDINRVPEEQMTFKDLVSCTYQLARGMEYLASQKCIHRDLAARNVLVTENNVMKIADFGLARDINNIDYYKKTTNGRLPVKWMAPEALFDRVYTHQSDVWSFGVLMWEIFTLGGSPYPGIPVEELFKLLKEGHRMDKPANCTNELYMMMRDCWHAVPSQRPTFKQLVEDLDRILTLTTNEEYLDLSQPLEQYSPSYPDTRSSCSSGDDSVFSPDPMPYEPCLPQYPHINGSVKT
Protocol: Measurement of Inhibitory Effect on FGFR2 Kinase Activity
EDTA (final concentration: 30 mM) diluted with a separation buffer (Caliper Life Sciences, Inc.) was added thereto to terminate the kinase reaction. […] The level of phosphorylation was determined from the quantitative ratio.

Row | Compound | GI50 [1] [µM] | IC50 [2] [µM]
1 | C=CC(=O)N1C[C@@H](n2cc(C#Cc3cc(OC)cc(OC)c3)c3c(N)ncnc32)C[C@H]1C(=O)OC [Ex. Compound 66, (2S,4S)-methyl 1-acryloyl-4-(4-amino-5-((3,5-dimethoxyphenyl)ethynyl)-7H-pyrrolo[2,3-d]pyrimidin-7-yl)pyrrolidine-2-carboxylate] | < 0.0046 | –
2 | CC(C)c1cc(C#Cc2nn([C@H]3CCN(C(=O)/C=C/CN(C)C)C3)c3ncnc(N)c23)cc(C(C)C)c1 [Ref. Ex. Compound 4, (S)-1-(3-(4-amino-3-((3,5-diisopropylphenyl)ethynyl)-1H-pyrazolo[3,4-d]pyrimidin-1-yl)pyrrolidin-1-yl)-4-(dimethylamino)but-2-en-1-one] | – | > 10
